In patent US9539252B2, “Piperazine-substituted benzothiophene derivatives as antipsychotic agents” (OTSUKA PHARMACEUTICAL CO., LTD., priority 2011, dated 2017):

test: Solubility in oil (sesame oil, benzyl benzoate), visual observation; details: benzyl benzoate, oil or lipid, thermodynamic from solid

solubility, > 100 mg/mL:
C=CCCCCCCCCC(=O)OCn1c(=O)ccc2ccc(OCCCCN3CCN(c4cccc5sccc45)CC3)cc21 [Example 74, undec-10-enoic acid 7-[4-(4-benzo[b]thiophen-4-ylpiperazin-1-yl)butoxy]-2-oxo-2H-quinolin-1-ylmethyl ester]
COC(=O)CCCNC(=O)OCn1c(=O)ccc2ccc(OCCCCN3CCN(c4cccc5sccc45)CC3)cc21 [Example 101, 4-{7-[4-(4-benzo[b]thiophen-4-ylpiperazin-1-yl)butoxy]-2-oxo-2H-quinolin-1-ylmethoxycarbonylamino}butyric acid methyl ester]
COC(=O)CNC(=O)OCN1C(=O)CCc2ccc(OCCCCN3CCN(c4cccc5sccc45)CC3)cc21 [Example 89, {7-[4-(4-benzo[b]thiophen-4-ylpiperazin-1-yl)butoxy]-2-oxo-3,4-dihydro-2H-quinolin-1-ylmethoxycarbonylamino}acetic acid methyl ester]
O=C(OCn1c(=O)ccc2ccc(OCCCCN3CCN(c4cccc5sccc45)CC3)cc21)C1CCC1 [Example 136, cyclobutanecarboxylic acid 7-[4-(4-benzo[b]thiophen-4-ylpiperazin-1-yl)butoxy]-2-oxo-2H-quinolin-1-ylmethyl ester]
CCCCN(CCCC)C(=O)OCN1C(=O)CCc2ccc(OCCCCN3CCN(c4cccc5sccc45)CC3)cc21 [Example 28, N,N-dibutylcarbamic acid 7-[4-(4-benzo[b]thiophen-4-ylpiperazin-1-yl)butoxy]-2-oxo-3,4-dihydro-2H-quinolin-1-ylmethyl ester]
CCCCCCCC/C=C\CCCCCCCC(=O)OCn1c(=O)ccc2ccc(OCCCCN3CCN(c4cccc5sccc45)CC3)cc21 [Example 39, (Z)-octadec-9-enoic acid 7-[4-(4-benzo[b]thiophen-4-ylpiperazin-1-yl)butoxy]-2-oxo-2H-quinolin-1-ylmethyl ester]
C=CCNC(=O)OCn1c(=O)ccc2ccc(OCCCCN3CCN(c4cccc5sccc45)CC3)cc21 [Example 112, N-allylcarbamic acid 7-[4-(4-benzo[b]thiophen-4-ylpiperazin-1-yl)butoxy]-2-oxo-2H-quinolin-1-ylmethyl ester]
O=C(OCN1C(=O)CCc2ccc(OCCCCN3CCN(c4cccc5sccc45)CC3)cc21)N1CCCCC1 [Example 9, piperidine-1-carboxylic acid 7-[4-(4-benzo[b]thiophen-4-ylpiperazin-1-yl)butoxy]-2-oxo-3,4-dihydro-2H-quinolin-1-ylmethyl ester]
O=C(OCn1c(=O)ccc2ccc(OCCCCN3CCN(c4cccc5sccc45)CC3)cc21)C1CCCC1 [Example 37, cyclopentanecarboxylic acid 7-[4-(4-benzo[b]thiophen-4-ylpiperazin-1-yl)butoxy]-2-oxo-2H-quinolin-1-ylmethyl ester]
CCCCCCCC/C=C\CCCCCCCC(=O)OCN1C(=O)CCc2ccc(OCCCCN3CCN(c4cccc5sccc45)CC3)cc21 [Example 33, (Z)-octadec-9-enoic acid 7-[4-(4-benzo[b]thiophen-4-ylpiperazin-1-yl)butoxy]-2-oxo-3,4-dihydro-2H-quinolin-1-ylmethyl ester]
O=C(OCN1C(=O)CCc2ccc(OCCCCN3CCN(c4cccc5sccc45)CC3)cc21)C1CCCC1 [Example 13, cyclopentanecarboxylic acid 7-[4-(4-benzo[b]thiophen-4-ylpiperazin-1-yl)butoxy]-2-oxo-3,4-dihydro-2H-quinolin-1-ylmethyl ester]
CCCC(C)C(=O)OCn1c(=O)ccc2ccc(OCCCCN3CCN(c4cccc5sccc45)CC3)cc21 (stereo not shown) [Example 94, 2-methylpentanoic acid 7-[4-(4-benzo[b]thiophen-4-ylpiperazin-1-yl)butoxy]-2-oxo-2H-quinolin-1-ylmethyl ester]

same assay, conditions: sesame oil, oil or lipid, thermodynamic from solid

solubility, > 100 mg/mL:
CCCCN(CCCC)C(=O)OCN1C(=O)CCc2ccc(OCCCCN3CCN(c4cccc5sccc45)CC3)cc21 [Example 28, N,N-dibutylcarbamic acid 7-[4-(4-benzo[b]thiophen-4-ylpiperazin-1-yl)butoxy]-2-oxo-3,4-dihydro-2H-quinolin-1-ylmethyl ester]
